Data from PubChem BioAssay (NCI).
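Cultured in 96-well plates, cells were exposed to test compound for 48 hours across five concentrations. TGI denotes the concentration required for complete inhibition of growth.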

Assays:
Assay in all cases: DTP human tumour cell line panel, 48 h
RPMI-8226 leukemia = system: RPMI-8226 leukemia
DU-145 prostate = system: DU-145 prostate
SF-539 CNS = system: SF-539 CNS
PC-3 prostate = system: PC-3 prostate
SW-620 colon = system: SW-620 colon
EKVX NSCLC = system: EKVX NSCLC
MDA-MB-435 = system: MDA-MB-435
TK-10 renal = system: TK-10 renal
SF-268 CNS = system: SF-268 CNS
A498 renal = system: A498 renal
OVCAR-8 ovarian = system: OVCAR-8 ovarian
SNB-75 CNS = system: SNB-75 CNS
SK-MEL-2 melanoma = system: SK-MEL-2 melanoma
NCI/ADR-RES ovarian = system: NCI/ADR-RES ovarian
T-47D breast = system: T-47D breast
NCI-H522 lung = system: NCI-H522 lung
HL-60(TB) leukemia = system: HL-60(TB) leukemia
NCI-H226 lung = system: NCI-H226 lung

Compound	TGI (RPMI-8226 leukemia) [µM]	TGI (DU-145 prostate) [µM]	TGI (SF-539 CNS) [µM]	TGI (PC-3 prostate) [µM]	TGI (SW-620 colon) [µM]	TGI (EKVX NSCLC) [µM]	TGI (MDA-MB-435) [µM]	TGI (TK-10 renal) [µM]	TGI (SF-268 CNS) [µM]	TGI (A498 renal) [µM]	TGI (OVCAR-8 ovarian) [µM]	TGI (SNB-75 CNS) [µM]	TGI (SK-MEL-2 melanoma) [µM]	TGI (NCI/ADR-RES ovarian) [µM]	TGI (T-47D breast) [µM]	TGI (NCI-H522 lung) [µM]	TGI (HL-60(TB) leukemia) [µM]	TGI (NCI-H226 lung) [µM]
COc1ccc(C(=O)/C=C2\c3ccccc3C(=O)N2C)cc1	> 100	> 100	> 100	> 100	> 100	> 100	> 100	> 100	> 100	> 100	> 100	> 100	> 100	> 100	> 100	> 100		
CC1=NN(c2nc(N)nc(C(C)Sc3cc(Cl)c(C)cc3S(N)(=O)=O)n2)C(C)(C)C1 (stereo unspecified)	> 10	> 10	> 10	> 10	> 10	> 10		> 10	> 10	> 10	> 10	> 10	> 10	> 10	> 10	> 10	> 10	> 10
COC(=O)C(/C(=N/N)C(=O)Nc1ccc(C)c(C)c1)c1nc2ccc(Cl)cc2[nH]c1=O (stereo unspecified)	> 100		> 100	> 100	> 100	> 100	> 100	> 100	> 100	> 100	> 100	> 100	> 100	> 100	> 100	> 100	> 100	> 100
C=CC1(c2ccc3ccccc3c2)OCC(CC)(CC)CO1	80.4	> 100	33.5	65.5	43.4		65.7	89.5	95.6		> 100	96.1	34.7	66.4	52.2	50.9	41.4	33.4
SC[C@@H]1COC[C@H](CS)S1		> 100	> 100	> 100	> 100	> 100	> 100	> 100	> 100		> 100	> 100			> 100	> 100	> 100	
Cn1c(=O)oc2cc(C(=S)N3CCC(Cc4ccccc4)CC3)ccc21	> 100	> 100	> 100	> 100	> 100	> 100	> 100	> 100	> 100	> 100	> 100	> 100	> 100	> 100			> 100	> 100
COCC[N+](CCNC(=O)c1cccc2c(N)c3cccc(C)c3nc12)(CCOC)Cc1ccc([N+](=O)[O-])cc1	27.2	59.1	56.7	> 100	> 100	67.3	83.4	> 100	87.5		> 100	61.7	> 100	> 100	37.3	36.3	40.1	
